Laboratory results: publication PMC6548519 (Nature chemical biology, 2019)

Tests used:
FAAH-4 = target: T1, FAAH-4 (Caenorhabditis elegans, UniProt Q9U217); type: biochemical
T1 sequence (Q9U217 1-647): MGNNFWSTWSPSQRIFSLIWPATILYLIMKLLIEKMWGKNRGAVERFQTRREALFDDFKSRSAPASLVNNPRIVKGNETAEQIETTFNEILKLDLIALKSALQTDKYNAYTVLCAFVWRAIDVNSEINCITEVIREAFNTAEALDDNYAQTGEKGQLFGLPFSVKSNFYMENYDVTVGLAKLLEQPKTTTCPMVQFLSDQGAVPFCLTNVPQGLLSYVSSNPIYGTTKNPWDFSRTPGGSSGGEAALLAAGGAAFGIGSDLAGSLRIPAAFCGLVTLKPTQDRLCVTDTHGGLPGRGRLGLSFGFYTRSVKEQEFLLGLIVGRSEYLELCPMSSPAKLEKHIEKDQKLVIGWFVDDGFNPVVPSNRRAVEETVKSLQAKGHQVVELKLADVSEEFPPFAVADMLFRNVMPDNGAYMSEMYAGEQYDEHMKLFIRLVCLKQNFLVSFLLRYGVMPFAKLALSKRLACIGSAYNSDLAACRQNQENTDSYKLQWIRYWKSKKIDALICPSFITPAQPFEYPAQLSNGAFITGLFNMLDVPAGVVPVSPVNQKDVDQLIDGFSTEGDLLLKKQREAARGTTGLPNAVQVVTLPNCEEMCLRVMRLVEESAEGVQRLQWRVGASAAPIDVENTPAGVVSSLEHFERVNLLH

FAAH-1 = target: T2, FAAH-1 (Caenorhabditis elegans, UniProt Q17449); assay: MS-based competitive ABPP of worms treated in vivo; type: cell-based
T2 sequence (Q17449 15-572): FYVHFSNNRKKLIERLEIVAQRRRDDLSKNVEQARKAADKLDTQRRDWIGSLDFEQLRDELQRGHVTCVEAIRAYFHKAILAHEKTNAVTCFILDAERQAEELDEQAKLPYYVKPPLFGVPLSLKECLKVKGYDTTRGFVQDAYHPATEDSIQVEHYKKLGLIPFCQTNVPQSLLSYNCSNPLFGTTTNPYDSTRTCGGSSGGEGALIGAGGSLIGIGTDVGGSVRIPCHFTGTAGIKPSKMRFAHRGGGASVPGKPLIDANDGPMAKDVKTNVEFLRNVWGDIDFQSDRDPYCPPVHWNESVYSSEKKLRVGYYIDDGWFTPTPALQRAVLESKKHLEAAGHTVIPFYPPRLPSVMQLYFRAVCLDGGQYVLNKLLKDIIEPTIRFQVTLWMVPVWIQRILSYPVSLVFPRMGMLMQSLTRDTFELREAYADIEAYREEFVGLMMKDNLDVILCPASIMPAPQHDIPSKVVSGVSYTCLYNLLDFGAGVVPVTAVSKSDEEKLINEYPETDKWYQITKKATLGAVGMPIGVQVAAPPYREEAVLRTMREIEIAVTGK

SMILES	IC50 (FAAH-4) [µM]	MS-based competitive ABPP of worms treated in vivo (50 μM) (FAAH-1)
O=C(Oc1ccc([N+](=O)[O-])cc1)N1CCC(C(O)(c2ccc3c(c2)OCO3)c2ccc3c(c2)OCO3)CC1 [compound 1, JZL184]	11	–
NC(=O)c1cccc(-c2cccc(OC(=O)NC3CCCCC3)c2)c1 [compound 6, URB597]	–	URB597 also strongly engaged C. elegans FAAH-1 in vivo
